Data set [1] deals with intracellular L. donovani in THP-1 macrophage host cells. Nature of the data set: THP-1 macrophage infection assay: anti L. donovani activity. The following applies: for SI (CC50/IC50): THP-1 CC50 / L. donovani IC50; for L. donovani growth inhibitory activity (in words): L. donovani in THP-1 macrophages.
Data set [2] is described as follows: THP-1 macrophage infection assay: cytotoxicity to host cells. The following applies: human.
Data set [3] deals with intracellular L. donovani in THP-1 macrophage host cells.
Data set [4] deals with THP-1 macrophages.
For data set [5], the system named is L. donovani amastigote/macrophages. Details: method as in PMID 25740547. To be noted: GSK kinetoplastid high-throughput screen; cited from earlier work.
Data set [6] deals with HepG2. Details: method as in PMID 25740547. The following applies: GSK screen; read-out: CC50 against HepG2 cells; cited from earlier work.
Data set [7] in a line: Metabolic stability of compound 1. The format is in vitro ADME. An excerpt: We first analyzed compound 1 for physicochemical parameters such as the molecular weight, cLogP, polar surface area, freely rotatable bonds, hydrogen bond donors and acceptors and solubility at pH 2 and 6.5, as well as metabolic stability to evaluate its drug-likeness (Table 1). […] These “drug-like” physicochemical properties and the good synthetic accessibility of the scaffold further supported exploring the compound’s SAR to reveal valuable insights and guidance for drug developers.

Data set [8] relates to L. donovani in infected macrophages. Details: method as in PMID 25740547. To be noted: cited from earlier work.
The mark [9] stands for this setting: Leishmania donovani, THP-1, read-out: IC50 (reduction of total number of parasites by 50%).

Read-outs that look alike come from different tables or passages of the source.

`COc1cccc(-c2ccc(C(=O)NNC(=O)Cc3nc4ccccc4n3C)nc2)c1` [Compound 17g, 5-(3-Methoxyphenyl)-N′-(2-(1-methyl-1H-benzo[d]imidazole-2-yl)acetyl)picolinohydrazide]: in data set [1] (setting [9]), the IC50 amounted to 0.6 µM. Besides, the “SI (CC50/IC50)” value in data set [1] was greater than 172. This molecule yielded a CC50 at 72 h in data set [2] greater than 100 µM.
As for `Cn1c(CC(=O)NNC(=O)c2ccc(-c3cccc(C#N)c3)cn2)nc2ccccc21` [Compound 17d, 5-(3-Cyanophenyl)-N′-(2-(1-methyl-1H-benzo[d]imidazole-2-yl)acetyl)picolinohydrazide], in data set [1] (setting [9]), the IC50 came out at 1.4 µM. The “SI (CC50/IC50)” value in data set [1] is recorded as greater than 74. In data set [2], the CC50 at 72 h is greater than 100 µM.
On the same counts, the results for `Cn1c(CC(=O)NNC(=O)c2ccc(-c3ccc(C#N)cc3)cn2)nc2ccccc21` [Compound 17e, 5-(4-Cyanophenyl)-N′-(2-(1-methyl-1H-benzo[d]imidazole-2-yl)acetyl)picolinohydrazide] are 0.8 µM, 120 and 96 µM.
For `Cn1c(CC(=O)NNC(=O)c2ccc(-c3ccccc3Cl)cn2)nc2ccccc21` [Compound 17a, 5-(2-Chlorophenyl)-N′-(2-(1-methyl-1H-benzo[d]imidazole-2-yl)acetyl)picolinohydrazide] the same measures were 1 µM, greater than 103 and greater than 100 µM.
For `Cn1c(CC(=O)NNC(=O)c2ccc(-c3ccc(Cl)cc3)cn2)nc2ccccc21` [Compound 17c, 5-(4-Chlorophenyl)-N′-(2-(1-methyl-1H-benzo[d]imidazole-2-yl)acetyl)picolinohydrazide] the same measures were 1 µM, 74 and 73 µM.
Regarding `O=C(Cc1nc2ccccc2s1)NNC(=O)c1ccc2ccccc2n1` [Compound 5b], the IC50 in data set [1] (setting [9]) was greater than 100 µM. Also, the CC50 at 72 h in data set [2] is greater than 100 µM.
For the molecule `Cn1c(CC(=O)NNC(=O)c2ccccn2)nc2ccccc21` [Compound 13b, N′-(2-(1-Methyl-1H-benzo[d]imidazole-2-yl)acetyl)picolinohydrazide], the IC50 in data set [1] (setting [9]) came out at 44 µM. In addition, the “SI (CC50/IC50)” value in data set [1] was 1.4. In data set [2], the CC50 at 72 h worked out at 62 µM.
For `Cn1c(CC(=O)NNC(=O)c2ccc(-c3cccc(Cl)c3)cn2)nc2ccccc21` [Compound 17b, 5-(3-Chlorophenyl)-N′-(2-(1-methyl-1H-benzo[d]imidazole-2-yl)acetyl)picolinohydrazide], the half-inhibitory concentration (IC50) in data set [1] (setting [9]) was 1 µM. In addition, the “SI (CC50/IC50)” value in data set [1] was determined as 94. For the same molecule, the CC50 at 72 h in data set [2] came out at 94 µM.
“N′-(2-(Imidazole-2-yl)acetyl)quinoline-2-carbohydrazide [Compound 12]” yielded a Complete parasite clearance in data set [1] (L. donovani in THP-1 macrophage host cells, 10-point curve, top 100 μM, duplicates, n = 1) greater than 100 µM. In addition, the IC50 in data set [1] (read-out: IC50 (reduction of total number of parasites by 50%), L. donovani in THP-1 macrophage host cells, 10-point curve, 2× serial dilution, top 100 μM, duplicates, n = 1) turned out to be 45 µM. In data set [3], the “SI (CC50/IC50)” value stood at 0.7. In data set [4], this molecule gave a CC50 of 33 µM.
For the molecule `Cn1c(CC(=O)NNC(=O)c2ccc(-c3ccccc3)cn2)nc2ccccc21` [Compound 13e, N′-(2-(1-Methyl-1H-benzo[d]imidazole-2-yl)acetyl)-5-phenylpicolinohydrazide], in data set [1] (setting [9]), the IC50 was determined as 1.7 µM. In addition, the “SI (CC50/IC50)” value in data set [1] is 29. This molecule gave a CC50 at 72 h in data set [2] of 49 µM.
For the molecule `Cc1ccc(-c2ccc(C(=O)NNC(=O)Cc3nc4ccccc4n3C)nc2)cc1` [Compound 17k, N′-(2-(1-Methyl-1H-benzo[d]imidazole-2-yl)acetyl)-5-(p-tolyl)picolinohydrazide], in data set [1] (setting [9]), the IC50 is 0.2 µM. Further, in data set [1], the “SI (CC50/IC50)” value is greater than 500. In data set [2], this molecule yielded a CC50 at 72 h greater than 100 µM.
On the same counts, the results for `Cc1ccccc1-c1ccc(C(=O)NNC(=O)Cc2nc3ccccc3n2C)nc1` [Compound 17i, N′-(2-(1-Methyl-1H-benzo[d]imidazole-2-yl)acetyl)-5-(o-tolyl)picolinohydrazide] are 0.4 µM, 168 and 67 µM.
For the molecule `Cn1c(CC(=O)NNC(=O)c2ccc3ccccc3c2)nc2ccccc21` [Compound 13a, N′-(2-(1-Methyl-1H-benzo[d]imidazole-2-yl)acetyl)-2-naphthohydrazide], the “L. donovani growth inhibitory activity (in words)” value in data set [1] was “completely lost their L. donovani growth inhibitory activity”. Further, the IC50 in data set [1] (setting [9]) is greater than 100 µM. In data set [2], this molecule displayed a CC50 at 72 h greater than 100 µM.
For `O=C(Cc1nc2ccccc2[nH]1)NNC(=O)c1ccc2ccccc2n1` [Compound 5a, N′-(2-(1H-Benzo[d]imidazole-2-yl)acetyl)quinoline-2-carbohydrazide], the IC50 in data set [1] (setting [9]) is 5.9 µM. Besides, the “SI (CC50/IC50)” value in data set [1] was greater than 17. In data set [2], this molecule gave a CC50 at 72 h greater than 100 µM.
Take `Cn1c(CC(=O)NNC(=O)c2ccccc2)nc2ccccc21` [Compound 13c, N′-(2-(1-Methyl-1H-benzo[d]imidazole-2-yl)acetyl)benzohydrazide]: the “L. donovani growth inhibitory activity (in words)” value in data set [1] was “completely lost their L. donovani growth inhibitory activity”. Moreover, the IC50 in data set [1] (setting [9]) was greater than 100 µM. The CC50 at 72 h in data set [2] was greater than 100 µM.
Turning to `COc1ccc(-c2ccc(C(=O)NNC(=O)Cc3nc4ccccc4n3C)nc2)cc1` [Compound 17h, 5-(4-Methoxyphenyl)-N′-(2-(1-methyl-1H-benzo[d]imidazole-2-yl)acetyl)picolinohydrazide], in data set [1] (setting [9]), the IC50 was determined as 0.7 µM. Further, in data set [1], the “SI (CC50/IC50)” value is greater than 145. In data set [2], this molecule returned a CC50 at 72 h greater than 100 µM.
For the molecule `O=C(Cc1nc2ccccc2o1)NNC(=O)c1ccc2ccccc2n1` [Compound 5c, N′-(2-(Benzo[d]oxazol-2-yl)acetyl)quinoline-2-carbohydrazide], the IC50 in data set [1] (setting [9]) turned out to be 49 µM. Also, the “SI (CC50/IC50)” value in data set [1] amounted to 1.1. The CC50 at 72 h in data set [2] amounted to 54 µM.
On to `COc1ccccc1-c1ccc(C(=O)NNC(=O)Cc2nc3ccccc3n2C)nc1` [Compound 17f, 5-(2-Methoxyphenyl)-N′-(2-(1-methyl-1H-benzo[d]imidazole-2-yl)acetyl)picolinohydrazide], for which the IC50 in data set [1] (setting [9]) is 0.6 µM. Moreover, the “SI (CC50/IC50)” value in data set [1] came to 32. Also, the CC50 at 72 h in data set [2] is 19 µM.
`Cn1c(CC(=O)NNC(=O)c2cccc(-c3ccccc3)n2)nc2ccccc21` [Compound 13d, N′-(2-(1-Methyl-1H-benzo[d]imidazole-2-yl)acetyl)-6-phenylpicolinohydrazide]: the IC50 in data set [1] (setting [9]) worked out at 20 µM. Also, in data set [2], the CC50 at 72 h was greater than 100 µM.
Consider `Cc1cccc(-c2ccc(C(=O)NNC(=O)Cc3nc4ccccc4n3C)nc2)c1` [Compound 17j, N′-(2-(1-Methyl-1H-benzo[d]imidazole-2-yl)acetyl)-5-(m-tolyl)picolinohydrazide], for which the IC50 in data set [1] (setting [9]) came to 0.3 µM. The “SI (CC50/IC50)” value in data set [1] was 173. This molecule also showed a CC50 at 72 h in data set [2] of 52 µM.
`Cn1c(CC(=O)NNC(=O)c2ccc3ccccc3n2)nc2ccccc21` [Compound 1, N′-(2-(1-Methyl-1H-benzo[d]imidazole-2-yl)acetyl)quinoline-2-carbohydrazide]: the IC50 was 1.9 µM in data set [1] (setting [9]) and roughly 1.3 µM in data set [8] (GSK screen, read-out: IC50 against L. donovani in infected macrophages). In addition, the “SI (CC50/IC50)” value in data set [1] is greater than 54. The “pIC50 L. donovani imaging: amastigote/macrophages” value in data set [5] is given as 6.1. Besides, in data set [6], the CC50 was roughly 100 µM. In addition, the microsomal CLint in data set [7] (intrinsic clearance, read-out: metabolic stability Clint,in vitro) worked out at 22 µL/min/mg. Moreover, in data set [7] (read-out: metabolic stability half-life t1/2), the half-life amounted to 1.33 h. Also, the CC50 at 72 h in data set [2] was greater than 100 µM. The “pIC50 L. donovani in infected macrophages” value in data set [8] (GSK kinetoplastid high-throughput screen) is recorded as roughly 5.9. Also, in data set [8] (HepG2 CC50 / L. donovani IC50, GSK screen), the “therapeutic window CC50/IC50 (selectivity for the parasite)” value is on record as roughly 79.

The values are drawn from article PMC11375810, “Novel Diacyl-hydrazide Compounds as Potential Therapeutics for Visceral Leishmaniasis” (ACS Omega, 2024).
